Measurements reported in publication PMC4883112 (Journal of medicinal chemistry, 2015).
pIC50: −log10 of the molar value. ≈ marks a conversion by molar mass, not a printed value. Entries after “also recorded” stand apart in the source; their conditions may differ. Blank lines part the entries; values can stand above or below the compound they belong to.

Key:
[1] = Aqueous solubility, Shake-Flask method and HPLC; type: physicochemical; conditions: water with 2% DMSO
GSK-3β (h) = GSK-3β (h) (Homo sapiens, UniProt P49841); assay: IC50 determination GSK-3β; type: biochemical
[2] = system: wild-type zebrafish (Danio rerio) embryos; assay: Wild-type zebrafish embryo phenotype assay; conditions: for Lethality in zebrafish embryos: concentration range < 60μM, added 24 hpf, compared at 96 and 120 hpf
GSK-3α = GSK-3α (Sus scrofa, UniProt I6LNT8); assay: Commercial in vitro GSK-3α inhibition assay at single concentration; type: biochemical, porcine; conditions: read-out: GSK-3α Inhibition [%]
[3] = system: Tyr279 GSK-3α phosphorylation; assay: GSK-3α Tyr279 phosphorylation in AML cells; type: cell-based; conditions: 24h treatment, increasing concentrations, NB4
GSK-3β = GSK-3β (Sus scrofa, UniProt B2LUN4); assay: Commercial in vitro GSK-3β inhibition assay at single concentration; type: biochemical, porcine; conditions: duplicates; for inhibition at 1 µM: read-out: GSK-3β Inhibition [%], 1 μM of compound
[4] = system: AML cell lines (HL-60 and NB4); assay: AML differentiation; type: cell-based; conditions: 6 days of treatment
NB4 and HL-60 cell lines = assay: Methylcellulose colony formation; type: cell-based; conditions: concentration-dependent
[5] = system: Tyr216 GSK-3β phosphorylation; assay: GSK-3β Tyr216 phosphorylation in AML cells; type: cell-based; conditions: up to 20 μM; 24h treatment, NB4

GSK-3β, sequence (B2LUN4 1-420): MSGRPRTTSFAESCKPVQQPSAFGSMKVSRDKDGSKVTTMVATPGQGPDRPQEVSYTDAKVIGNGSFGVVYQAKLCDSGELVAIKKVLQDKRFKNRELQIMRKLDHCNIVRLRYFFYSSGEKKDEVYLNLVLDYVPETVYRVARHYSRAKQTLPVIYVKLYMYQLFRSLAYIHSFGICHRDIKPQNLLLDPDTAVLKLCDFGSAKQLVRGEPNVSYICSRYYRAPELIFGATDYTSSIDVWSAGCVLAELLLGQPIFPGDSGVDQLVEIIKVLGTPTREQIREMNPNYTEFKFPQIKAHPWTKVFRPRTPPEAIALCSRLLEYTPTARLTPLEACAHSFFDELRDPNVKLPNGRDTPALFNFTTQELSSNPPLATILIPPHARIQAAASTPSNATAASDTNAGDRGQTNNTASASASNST
GSK-3α, sequence (I6LNT8 1-483): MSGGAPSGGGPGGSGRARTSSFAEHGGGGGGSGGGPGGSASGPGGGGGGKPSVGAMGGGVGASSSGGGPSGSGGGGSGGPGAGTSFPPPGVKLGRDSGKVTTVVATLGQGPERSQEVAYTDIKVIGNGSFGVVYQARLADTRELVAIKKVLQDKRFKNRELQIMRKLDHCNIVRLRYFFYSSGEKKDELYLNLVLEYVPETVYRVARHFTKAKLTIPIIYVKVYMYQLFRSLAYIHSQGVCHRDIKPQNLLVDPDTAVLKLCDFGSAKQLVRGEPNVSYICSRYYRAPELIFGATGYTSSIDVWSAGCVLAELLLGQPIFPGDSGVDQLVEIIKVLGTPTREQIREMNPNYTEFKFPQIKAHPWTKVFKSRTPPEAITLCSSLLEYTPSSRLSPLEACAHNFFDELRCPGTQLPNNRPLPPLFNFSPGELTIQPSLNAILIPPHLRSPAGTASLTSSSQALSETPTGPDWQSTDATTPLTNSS
GSK-3β (h), sequence (P49841 whole entry): as the sequence (B2LUN4 1-420) above, with M40V, A59T, S392T, T400A, A402T, T411A counted along it

- solubility [1]: < 1 µg/mL
SMILES: N#Cc1cc(F)ccc1-c1ccc(CSc2nnc(-c3ccc4c(c3)OCCO4)o2)cc1 [Compound 1, 4′-(((5-(2,3-Dihydrobenzo[b][1,4]dioxin-6-yl)-1,3,4-oxadiazol-2-yl)thio)methyl)-4-fluoro-[1,1′-biphenyl]-2-carbonitrile]

- inhibition at 1 µM (GSK-3β): 0%
SMILES: N#Cc1cc(F)ccc1-c1ccc(CSc2nnc(-c3ccc4nc[nH]c4c3)o2)cc1 [Compound 12a, 4′-(((5-(1H-Benzo[d]imidazol-6-yl)-1,3,4-oxadiazol-2-yl)thio)methyl)-4-fluoro-[1,1′-biphenyl]-2-carbonitrile]

Second part, the compound before the results:

SMILES: Cc1ccc(-c2ccc(CSc3nnc(-c4ccc5c(c4)OCCO5)o3)cc2)nc1 [Compound 13e, 2-(2,3-Dihydrobenzo[b][1,4]dioxin-6-yl)-5-(4-(5-methylpyridin-2-yl)benzylthio)-1,3,4-oxadiazole]
- solubility [1]: < 1 µg/mL

SMILES: NC(=O)c1cc(F)ccc1-c1ccc(CSc2nnc(-c3ccc4c(c3)OCCO4)o2)cc1 [Compound 27, 4′-((5-(2,3-Dihydrobenzo[b][1,4]dioxin-6-yl)-1,3,4-oxadiazol-2-yl-thio)-methyl)-4-fluorbiphenyl-2-carboxamide]
- pIC50 (GSK-3β (h)): 7.85
- solubility [1]: 34 µg/mL (≈ 73.4 µM)
- Lethality in zebrafish embryos [2]: no lethality; also recorded: without lethality
- Zebrafish embryo phenotype at higher concentrations ([2]; in vivo): all zebrafish embryos showed a stunted and crooked tailed phenotype
- Zebrafish embryo phenotype at lower concentrations ([2]; in vivo): no abnormalities were observed
- inhibition at 1 µM (GSK-3α): 100%
- Tyr279 GSK-3α phosphorylation [3]: concentration-dependent decrease
- inhibition at 1 µM (GSK-3β): 100%
- Morphological and surface marker changes [4]: consistent with AML differentiation
- Methylcellulose colony formation (NB4 and HL-60 cell lines): colony formation impairment
- Tyr216 GSK-3β phosphorylation [5]: without any relevant effect

SMILES: N#Cc1cc(F)ccc1-c1ccc(CS(=O)(=O)c2nnc(-c3ccc4c(c3)OCCO4)o2)cc1 [Compound 26, 4′-((5-(2,3-Dihydrobenzo[b][1,4]dioxin-6-yl)-1,3,4-oxadiazol-2-yl-sulfonyl)methyl)-4-fluorbiphenyl-2-carbonitrile]
- inhibition at 0.1 µM (GSK-3α): 0%
- inhibition at 0.1 µM (GSK-3β; read-out: GSK-3β Inhibition [%], 100 nM of compound): 0%

SMILES: N#Cc1ccc(-c2ccc(CSc3nnc(-c4ccc5c(c4)OCCO5)o3)cc2)nc1 [Compound 13d, 6-(4-((5-(2,3-Dihydrobenzo[b][1,4]dioxin-6-yl)-1,3,4-oxadiazol-2-ylthio)methyl)phenyl)-nicotinonitrile]
- solubility [1]: 78 µg/mL (≈ 182 µM)
- Lethality in zebrafish embryos [2]: no lethality
- Effects on zebrafish embryo phenotype ([2]; in vivo): no effects

SMILES: Fc1ccc(-c2ccc(CSc3nnc(-c4ccc5c(c4)OCCO5)o3)cn2)cn1 [Compound 18c, 2-(2,3-Dihydrobenzo[b][1,4]dioxin-6-yl)-5-(((6′-fluoro-[2,3′-bipyridin]-5-yl)methyl)thio)-1,3,4-oxadiazole]
- solubility [1]: < 1 µg/mL

SMILES: Fc1ccc(-c2ccc(CSc3nnc(-c4ccc5c(c4)OCCO5)o3)cc2)cn1 [Compound 13f, 2-(2,3-Dihydrobenzo[b][1,4]dioxin-6-yl)-5-((4-(6-fluoropyridin-3-yl)benzyl)thio)-1,3,4-oxadiazole]
- solubility [1]: 7 µg/mL (≈ 16.6 µM)
